Assay results taken from patent publication US20260157955A1, “DEDIFFERENTIATED PLANT CELLS OF THE GENUS PAEONIA, EXTRACTS THEREOF AND COSMETIC USES THEREOF” (L'OREAL, priority 2021, published 2026).

Legend:
Assay type in all cases: cell-based
Conditions in all cases: 0.1 μM, 24 hours, human epidermal keratinocytes, n=2, vs control
AQP3 = assay: Expression of transcripts in human keratinocytes (RT-qPCR): AQP3
Method: (§1) Human epidermal keratinocytes were seeded in a 24-well culture plate and cultured for 72 hours at 37° C. and 5% CO2 in culture medium with renewal of the culture medium after the first 24 hours. At the end of the incubation, the culture medium was replaced with assay medium (supplemented with 1.5 mM CaCl2) containing starting or reference material (retinoic acid) or not containing same (control), and cells were incubated for another 24 hours. All the experimental conditions were performed in n=2. At the end of the treatment, the cells were washed twice in PBS (without CaCl2, without MgCl2) and RNA extraction was carried out using TriPure Isolation Reagent® according to the manufacturer's recommendations. The relative expression of the selected markers was measured by two-step RT-qPCR. First, reverse transcription was performed with the aid of Transcriptor Reverse Transcriptase (Roche) according to the manufacturer's recommendations. Then, PCR experiments were performed using a LightCycler® 480 real-time PCR system with a SYBR®Green incorporation measurement system (Roche).

CNFN = assay: Expression of transcripts in human keratinocytes (RT-qPCR): CNFN
Method: as §1

CLDN1 = assay: Expression of transcripts in human keratinocytes (RT-qPCR): CLDN1
Method: as §1

TGM1 = assay: Expression of transcripts in human keratinocytes (RT-qPCR): TGM1
Method: as §1

SPRR1A = assay: Expression of transcripts in human keratinocytes (RT-qPCR): SPRR1A
Method: as §1

`CC1=C(/C=C/C(C)=C/C=C/C(C)=C/C(=O)O)C(C)(C)CCC1` [Retinoic acid, retinoic acid] was tested, and the “relative expression of AQP3” value (AQP3) was 1.04, the “relative expression of CNFN” value (CNFN) was 0.46 and the “relative expression of CLDN1” value (CLDN1) was 0.85. The “relative expression of TGM1” value (TGM1) was 0.49 and the “relative expression of SPRR1A” value (SPRR1A) was 0.26.
